Measurements from BindingDB's records for doi:10.1021/jm00120a002 (Merck Sharp & Dohme Research Laboratories, 1989).

Assay: Half-maximal inhibition of [125I]gastrin binding to guinea pig gastric glands

SMILES | IC50
O=C(NC1N=C(c2ccccc2F)c2ccccc2NC1=O)c1ccsc1 (centres undefined) | > 10 µM
CN1C(=O)C(NC(=O)c2ccc(C(C)(C)C)cc2)N=C(c2ccccc2F)c2ccccc21 (centres undefined) | 6.4 µM
O=C(O)CN1C(=O)C(NC(=O)c2cc3ccccc3[nH]2)N=C(c2ccccc2F)c2ccccc21 (centres undefined) | 0.39 µM
O=C(NC1N=C(c2ccccc2F)c2ccccc2NC1=O)c1cc2cc(Br)ccc2[nH]1 (centres undefined) | > 10 µM
O=C(NC1N=C(c2ccccc2)c2ccccc2NC1=O)c1ccc2ccccc2c1 (centres undefined) | 14 µM
CCOC(=O)CN1C(=O)C(NC=O)N=C(c2ccccc2)c2ccccc21 (centres undefined) | 25 µM
CN1C(=O)C(NC(=O)c2ccsc2)N=C(c2ccccc2F)c2ccccc21 (centres undefined) | 11 µM
O=C(NC1N=C(c2ccccc2F)c2ccccc2NC1=O)c1ncc2ccccc2n1 (centres undefined) | > 10 µM
O=C(NC1N=C(c2ccccc2F)c2ccccc2N(C(=O)c2ccc(Cl)cc2)C1=O)c1ccc(Cl)cc1 (centres undefined) | 0.55 µM
O=C(O)CN1C(=O)C(NC(=O)c2ccc(Cl)cc2)N=C(c2ccccc2F)c2ccccc21 (centres undefined) | 8.2 µM
Cc1ccc(C(=O)NC2N=C(c3ccccc3F)c3ccccc3NC2=O)cc1 (centres undefined) | 5 µM
O=C(NC1N=C(c2ccccc2)c2ccccc2NC1=O)C1Cc2ccccc2N1 (centres undefined) | 110 µM
CC(C)(C)OC(=O)N[C@H](Cc1c[nH]c2ccccc12)C(=O)NC1N=C(c2ccccc2)c2ccccc2NC1=O (some centres undefined) | > 100 µM
CCCCCc1ccc(C(=O)NC2N=C(c3ccccc3)c3ccccc3NC2=O)cc1 (centres undefined) | > 100 µM
O=C(NC1N=C(c2ccccc2F)c2ccccc2NC1=O)c1ccc(C(F)(F)F)cc1 (centres undefined) | 9.5 µM
O=C(/C=C/c1ccccc1)NC1N=C(c2ccccc2F)c2ccccc2NC1=O (centres undefined) | 3.8 µM
CCCc1ccc(C(=O)NC2N=C(c3ccccc3)c3ccccc3NC2=O)cc1 (centres undefined) | 80 µM
O=C(NC1N=C(c2ccccc2)c2ccccc2NC1=O)c1cc(Cl)cc(Cl)c1 (centres undefined) | 180 µM
O=C(Cc1cccc2sccc12)NC1N=C(c2ccccc2F)c2ccccc2NC1=O (centres undefined) | 3.9 µM
O=C(NC1N=C(c2ccccc2)c2ccccc2NC1=O)c1c[nH]c2ccccc12 (centres undefined) | 18 µM

SMILES | IC50
CN1C(=O)C(NC(=O)c2cccc(I)c2)N=C(c2ccccc2F)c2ccccc21 (centres undefined) | 0.39 µM
COc1ccc2[nH]c(C(=O)NC3N=C(c4ccccc4F)c4ccccc4NC3=O)cc2c1 (centres undefined) | > 10 µM
O=C1Nc2ccccc2C(c2ccccc2F)=NC1NC(=O)C(O)c1ccccc1 (centres undefined) | > 10 µM
O=C(NC1N=C(c2ccccc2F)c2ccccc2NC1=O)c1ccc[nH]1 (centres undefined) | 25 µM
Cn1c(C(=O)NC2N=C(c3ccccc3F)c3ccccc3NC2=O)cc2ccccc21 (centres undefined) | 6.3 µM
O=C(NC1N=C(c2ccccc2F)c2ccccc2NC1=O)c1ccc([N+](=O)[O-])cc1 (centres undefined) | > 10 µM
O=C(NC1N=C(c2ccccc2)c2ccccc2NC1=O)c1ccc(Cl)c(Cl)c1 (centres undefined) | 25 µM
O=C(NC1N=C(c2ccccc2)c2ccccc2NC1=O)c1ccc(-c2ccccc2)cc1 (centres undefined) | > 100 µM
CN1C(=O)[C@@H](NC(=O)c2ccc(C(F)(F)F)cc2)N=C(c2ccccc2F)c2ccccc21 | 0.44 µM
CN1C(=O)[C@@H](NC(=O)c2ccc(C#N)cc2)N=C(c2ccccc2F)c2ccccc21 | 9 µM
CN1C(=O)[C@@H](NC(=O)c2ccccc2I)N=C(c2ccccc2)c2ccccc21 | 38 µM
CN1C(=O)[C@H](NC(=O)c2ccc(C(F)(F)F)cc2)N=C(c2ccccc2)c2ccccc21 | 4.2 µM
CN1C(=O)[C@@H](NC(=O)C(C)(C)C)N=C(c2ccccc2)c2ccccc21 | 13 µM
CN1C(=O)[C@H](NC(=O)c2ccccc2Cl)N=C(c2ccccc2F)c2ccccc21 | 3.7 µM
CN1C(=O)[C@@H](NC(=O)c2ccc(Br)cc2)N=C(c2ccccc2)c2ccccc21 | 0.8 µM
CN1C(=O)C(NC(=O)C(Cc2ccccc2)NC(=O)OC(C)(C)C)N=C(c2ccccc2F)c2ccccc21 (centres undefined) | 2.9 µM
CN1C(=O)[C@H](NC(=O)c2ccccc2Cl)N=C(c2ccccc2)c2ccccc21 | 7.5 µM
CN1C(=O)[C@H](NC(=O)c2ccc(Cl)cc2)N=C(c2ccccc2F)c2ccccc21 | 5.2 µM
CN1C(=O)[C@@H](NC(=O)c2ccccc2I)N=C(c2ccccc2F)c2ccccc21 | 11 µM
